For 19 molecules, IC50 results are on record in patent US20230143612A1 (Arbutus Biopharma Corporation, priority 2020, published 2023).

The term IC50 denotes the midpoint of a concentration-inhibition curve. Low readings indicate higher potency, high ones lower potency.

Each structure is given as a SMILES string.

Chain of PD-L1 His protein / PD-1 Fc protein (Q9NZQ7 19-238 limits assumed): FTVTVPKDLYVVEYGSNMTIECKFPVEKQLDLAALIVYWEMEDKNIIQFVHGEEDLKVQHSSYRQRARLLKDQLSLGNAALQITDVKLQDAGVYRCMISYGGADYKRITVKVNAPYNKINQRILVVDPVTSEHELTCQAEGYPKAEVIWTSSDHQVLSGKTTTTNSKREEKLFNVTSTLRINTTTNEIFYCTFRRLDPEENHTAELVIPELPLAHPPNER

This assay has as its target PD-L1 His protein / PD-1 Fc protein (Homo sapiens, UniProt Q9NZQ7). In words: HTRF Assay (PD-1/PD-L1 interaction). The assay is classed as binding. The following applies: PD-L1 His 6 nM, PD-1 Fc 6 nM. In outline: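 Compounds tested from 20 μM down to 0.001 μM (3-fold) against 6 nM PD-L1 His and 6 nM PD-1 Fc, 15 min room temperature incubation. Detection after 1 h at room temperature with Tb cryptate anti-6HIS and XL665 anti-human IgG reagents (mixture at 0.35 nM and 6.7 nM), HTRF signal.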
For orientation: TR-FRET usually uses a lanthanide donor and a delayed reading to cut background.
`COc1nc(-c2cccc(-c3cccc(-c4ccn5c(=O)c(CNCC6CCCC(=O)N6)cnc5c4)c3Cl)c2Cl)ccc1CNC[C@@H]1CCC(=O)N1` (mixture of isomers) [Example 206, 8-(2,2′-Dichloro-3′-(6-methoxy-5-(((((S)-5-oxopyrrolidin-2-yl)methyl)amino)methyl)pyridin-2-yl)-[1,1′-biphenyl]-3-yl)-3-((((6-oxopiperidin-2-yl)methyl)amino)methyl)-4H-pyrido[1,2-a]pyrimidin-4-one] yielded an IC50 of 14 nM.
As for `COC(=O)[C@H](CO)NCc1cnc2cc(-c3cccc(-c4cccc(-c5ccc(CNC[C@@H]6CCC(=O)N6)c(OC)n5)c4Cl)c3Cl)ccn2c1=O` [Example 101, Methyl ((8-(2,2′-dichloro-3′-(6-methoxy-5-(((((S)-5-oxopyrrolidin-2-yl)methyl)amino)methyl)pyridin-2-yl)-[1,1′-biphenyl]-3-yl)-4-oxo-4H-pyrido[1,2-a]pyrimidin-3-yl)methyl)-L-serinate], the figure is 2.1 nM; as for `COc1nc(-c2cccc(-c3cccc(-c4ccn5c(=O)c(CNCCN6CCNC6=O)cnc5c4)c3Cl)c2Cl)ccc1CNC[C@@H]1CCC(=O)N1` [Example 207, (S)-8-(2,2′-Dichloro-3′-(6-methoxy-5-((((5-oxopyrrolidin-2-yl)methyl)amino)methyl)pyridin-2-yl)-[1,1′-biphenyl]-3-yl)-3-(((2-(2-oxoimidazolidin-1-yl)ethyl)amino)methyl)-4H-pyrido[1,2-a]pyrimidin-4-one], 0.3 nM; as for `COC(=O)[C@H](CO)NCc1ccc(-c2cccc(-c3cccc(-c4ccn5c(=O)c(CNC[C@@H]6CCC(=O)N6)cnc5c4)c3Cl)c2Cl)nc1OC` [Example 113, Methyl ((6-(2,2′-dichloro-3′-(4-oxo-3-(((((S)-5-oxopyrrolidin-2-yl)methyl)amino)methyl)-4H-pyrido[1,2-a]pyrimidin-8-yl)-[1,1′-biphenyl]-3-yl)-2-methoxypyridin-3-yl)methyl)-L-serinate], 54 nM.
`Cc1c(COc2cc(OCc3cncc(C#N)c3)c(CN3CC(C(=O)O)C3)cc2Cl)cccc1-c1cccc(-c2ccn3c(=O)c(CN4CC(C(=O)O)C4)ccc3c2)c1C` [Example 29, 1-((8-(3′-((4-((3-Carboxyazetidin-1-yl)methyl)-2-chloro-5-((5-cyanopyridin-3-yl)methoxy)phenoxy)methyl)-2,2′-dimethyl-[1,1′-biphenyl]-3-yl)-4-oxo-4H-quinolizin-3-yl)methyl)azetidine-3-carboxylic acid] had a concentration for half-maximal inhibition (IC50) of 0.9 nM. Against the preceding molecule, the IC50 is about 60-fold lower.
Under `COc1nc(-c2cccc(-c3cccc(-c4ccn5c(=O)c(CNCC(=O)O)cnc5c4)c3Cl)c2Cl)ccc1CNC[C@@H]1CCC(=O)N1` [Example 189, (S)-((8-(2,2′-Dichloro-3′-(6-methoxy-5-((((5-oxopyrrolidin-2-yl)methyl)amino)methyl)pyridin-2-yl)-[1,1′-biphenyl]-3-yl)-4-oxo-4H-pyrido[1,2-a]pyrimidin-3-yl)methyl)glycine] stands 0.1 nM; under `COC(=O)N(C)CCN(C)Cc1ccc(-c2cccc(-c3cccc(-c4ccn5c(=O)c(CN(C)CCN(C)C(=O)OC)cnc5c4)c3Cl)c2Cl)nc1OC` [Example 299, methyl (2-(((8-(2,2′-dichloro-3′-(6-methoxy-5-(((2-((methoxycarbonyl)(methyl)amino)ethyl)(methyl)amino)methyl)pyridin-2-yl)-[1,1′-biphenyl]-3-yl)-4-oxo-4H-pyrido[1,2-a]pyrimidin-3-yl)methyl)(methyl)amino)ethyl)(methyl)carbamate], 3000 nM; under `Cc1c(OCc2cc(OCc3cncc(C#N)c3)c(CNC[C@@H]3CCC(=O)N3)cc2Cl)cccc1-c1cccc(-c2ccc3c(c2)C(=O)N(C)CC(=O)N3CCNC[C@@H]2CCC(=O)N2)c1C` [Example 27, 5-((4-Chloro-5-(((2,2′-dimethyl-3′-(4-methyl-2,5-dioxo-1-(2-((((S)-5-oxopyrrolidin-2-yl)methyl)amino)ethyl)-2,3,4,5-tetrahydro-1H-benzo[e][1,4]diazepin-7-yl)-[1,1′-biphenyl]-3-yl)oxy)methyl)-2-(((((S)-5-oxopyrrolidin-2-yl)methyl)amino)methyl)phenoxy)methyl)nicotinonitrile], 9.9 nM.
As for `COc1nc(-c2cccc(-c3cccc(-c4ccc5c(n4)OCCN(CCO)C5)c3Cl)c2Cl)ccc1CNC[C@@H]1CCC(=O)N1` [Example 267, (S)-5-((((6-(2,2′-Dichloro-3′-(4-(2-hydroxyethyl)-2,3,4,5-tetrahydropyrido[3,2-f][1,4]oxazepin-8-yl)-[1,1′-biphenyl]-3-yl)-2-methoxypyridin-3-yl)methyl)amino)methyl)pyrrolidin-2-one], the IC50 amounted to 0.2 nM.
With `COc1nc(-c2cccc(-c3cccc(-c4ccn5c(=O)c(CN6CC[C@H](C(=O)O)C6)cnc5c4)c3Cl)c2Cl)cnc1CNC[C@@H]1CCC(=O)N1` [Example 116, (S)-1-((8-(2,2′-Dichloro-3′-(6-methoxy-5-(((((S)-5-oxopyrrolidin-2-yl)methyl)amino)methyl)pyrazin-2-yl)-[1,1′-biphenyl]-3-yl)-4-oxo-4H-pyrido[1,2-a]pyrimidin-3-yl)methyl)pyrrolidine-3-carboxylic acid], it took 0.3 nM to reach half-maximal inhibition (IC50).
As for `COc1nc(-c2cccc(-c3cccc(-c4ccn5c(=O)c(CNCCN6CCNC(=O)C6)cnc5c4)c3Cl)c2Cl)ccc1CNC[C@@H]1CCC(=O)N1` [Example 264, (S)-8-(2,2′-dichloro-3′-(6-methoxy-5-((((5-oxopyrrolidin-2-yl)methyl)-amino)-methyl)-pyridin-2-yl)-[1,1′-biphenyl]-3-yl)-3-(((2-(3-oxopiperazin-1-yl)ethyl)amino)methyl)-4H-pyrido[1,2-a]pyrimidin-4-one], the figure is 0.1 nM.
As for `COC(=O)[C@H]1CCN(Cc2cnc3cc(-c4cccc(-c5cccc(-c6ccc(CNC[C@@H]7CCC(=O)N7)c(OC)n6)c5Cl)c4Cl)cc(C)n3c2=O)C1` [Example 295, (S)-Methyl 1-((8-(2,2′-dichloro-3′-(6-methoxy-5-(((((S)-5-oxopyrrolidin-2-yl)methyl)amino)methyl)pyridin-2-yl)-[1,1′-biphenyl]-3-yl)-6-methyl-4-oxo-4H-pyrido[1,2-a]pyrimidin-3-yl)methyl)pyrrolidine-3-carboxylate], the figure is 0.1 nM; as for `COC(=O)CNCc1cnc2cc(-c3cccc(-c4cccc(-c5ccc(CNC[C@@H]6CCC(=O)N6)c(OC)n5)c4Cl)c3Cl)ncc2c1` [Example 305, (S)-Methyl 2-(((7-(2,2′-dichloro-3′-(6-methoxy-5-((((5-oxopyrrolidin-2-yl)methyl)amino)methyl)pyridin-2-yl)-[1,1′-biphenyl]-3-yl)-1,6-naphthyridin-3-yl)methyl)amino)acetate], 0.4 nM; as for `COc1nc(-c2cccc(-c3cccc(-c4ccc5c(n4)N(C)CCC5NC[C@@H]4CCC(=O)N4)c3Cl)c2Cl)ccc1CNC[C@@H]1CCC(=O)N1` (mixture of isomers) [Example 51, (5S)-5-(((7-(2,2′-Dichloro-3′-(6-methoxy-5-(((((S)-5-oxopyrrolidin-2-yl)methyl)amino)methyl)pyridin-2-yl)-[1,1′-biphenyl]-3-yl)-1-methyl-1,2,3,4-tetrahydro-1,8-naphthyridin-4-yl)amino)methyl)pyrrolidin-2-one], 2.9 nM.
`COc1nc(-c2cccc(-c3cccc(-c4ccc5c(=O)nc(CNC[C@@H]6CCC(=O)N6)[nH]c5c4)c3Cl)c2Cl)ccc1CNC[C@@H]1CCC(=O)N1` [Example 421, 7-(2,2′-Dichloro-3′-(6-methoxy-5-(((((S)-5-oxopyrrolidin-2-yl)methyl)amino)methyl)pyridin-2-yl)-[1,1′-biphenyl]-3-yl)-2-(((((S)-5-oxopyrrolidin-2-yl)methyl)amino)methyl)quinazolin-4(1H)-one] came in with an IC50 of 14 nM.
Under `Cc1c(COc2cc(OCc3cncc(C#N)c3)c(CN3CC[C@H](C(=O)O)C3)cc2Cl)cccc1-c1cccc(-c2ccc3c(c2)C(=O)N(C)CC(=O)N3CCN2CC[C@H](C(=O)O)C2)c1C` [Example 30, (S)-1-(4-((3′-(1-(2-((S)-3-Carboxypyrrolidin-1-yl)ethyl)-4-methyl-2,5-dioxo-2,3,4,5-tetrahydro-1H-benzo[e][1,4]diazepin-7-yl)-2,2′-dimethyl-[1,1′-biphenyl]-3-yl)methoxy)-5-chloro-2-((5-cyanopyridin-3-yl)methoxy)benzyl)pyrrolidine-3-carboxylic acid] stands 0.3 nM; under `Cn1cc(CNC[C@@H]2CCC(=O)N2)c2ccc(-c3cccc(-c4cccc(-c5ccn6c(=O)c(CNC[C@@H]7CCC(=O)N7)cnc6c5)c4Cl)c3Cl)nc21` [Example 416, 8-[2-Chloro-3-[2-chloro-3-[1-methyl-3-[[[(2S)-5-oxopyrrolidin-2-yl]methylamino]methyl]pyrrolo[2,3-b]pyridin-6-yl]phenyl]phenyl]-3-[[[(2S)-5-oxopyrrolidin-2-yl]methylamino]methyl]pyrido[1,2-a]pyrimidin-4-one], 71 nM; under `COc1nc(-c2cccc(-c3cccc(-c4cc(C)n5c(=O)c(CNCCO)cnc5c4)c3Cl)c2Cl)ccc1CNC[C@@H]1CCC(=O)N1` [Example 308, (S)-8-(2,2′-Dichloro-3′-(6-methoxy-5-((((5-oxopyrrolidin-2-yl)methyl)amino)methyl)pyridin-2-yl)-[1,1′-biphenyl]-3-yl)-3-(((2-hydroxyethyl)amino)methyl)-6-methyl-4H-pyrido[1,2-a]pyrimidin-4-one], 22 nM.
Molecule `COC(=O)C1CN(Cc2cnc3cc(-c4cccc(-c5cccc(-c6ccc(CNC[C@@H]7CCC(=O)N7)c(OC)n6)c5Cl)c4Cl)ccn3c2=O)C1` [Example 162, (S)-Methyl 1-((8-(2,2′-dichloro-3′-(6-methoxy-5-((((5-oxopyrrolidin-2-yl)methyl)amino)methyl)pyridin-2-yl)-[1,1′-biphenyl]-3-yl)-4-oxo-4H-pyrido[1,2-a]pyrimidin-3-yl)methyl)azetidine-3-carboxylate] gave a concentration for half-maximal inhibition (IC50) of 3.8 nM.
